Reference: US4943581A, “Isoquinolinesulfonamides” (Hokuriku Pharmaceutical Co., Ltd., priority 1988, dated 1990)
Structures can show the parent of a compound that is named as a salt.

How the values were obtained:
[1] = test system: smooth muscle of the blood vessel (superior mesenteric artery); assay: Relaxation effect on smooth muscle of blood vessel (spiral specimen of superior mesenteric artery contracted with 20 mM KCl); settings: Oryctolagus cuniculus; concentration giving 50% relaxation; contraction induced by 20 mM KCl taken as 100%; 37°±0.5° C.; rabbit superior mesenteric artery; read-out: ED50 (the source's name)
Method: The extracted blood vessels were cut in the usual way into the form of spirals, and a specimen of 1.5-2.5 mm in width and 20-30 mm in length was formed. The spiral specimen was suspended in 20 ml organ bath comprising Krebs-Henseleit's solution, after which a tension of 2.0-0.5 g was loaded. The nutrient solution was warmed at 37°±0.5° C. and ventilated by mixed gas of 95% oxygen and 5% carbon dioxide. The lower end was fixed, whereas the upper end was attached to a force-displacement transducer (SB-1T) manufactured by Nihon Koden Company. The change of tension was recorded isometrically. The specimen was suspended for at least 60 minutes before the test was begun, and the nutrient solution was exchanged every 15 minutes to conduct the experiment in the meantime.
The relaxation effect upon the smooth muscle of the blood vessel was tested. Previously, the spiral specimen had been contracted with 20 mM of KCl and maintained at a certain tension; thereafter the test agent was added cumulatively. Contraction induced by 20 mM KCl was taken as 100% and the relaxation effect of the test agent was represented by ED50 which was the concentration of the agent at which only 50% of the muscles remained shrunken.

[2] = biological target: T1, myosin light-chain kinase (Gallus gallus, UniProt P11799); assay: Inhibition of myosin light-chain kinase (32P incorporation from [γ-32P] ATP into myosin light chain); format: biochemical; settings: enzymatic activity depression of 50%; chicken gizzard; 200 μM CaCl2, 80 ng calmodulin, pH 7.0, 30 °C
T1 construct: myosin light chain kinase (prepared from the smooth muscles of chicken gizzard); from tissue; host or cells: smooth muscle of chicken gizzard (kinase); cattle brain (calmodulin)
Method: A myosin light chain of the smooth muscles of chicken gizzard was used as a substrate and the amount of radioactive phosphoric acid incorporated from [γ-32P] ATP into the substrate-protein was measured for a determination of the activity of the enzyme. The reaction solution, in an amount of 200 μl as a whole, was constituted from 25 mM of Tris-HCl(pH 7.0), 10 mM MgCl2, 40 μg of myosin light chain (obtained by preparing myosin from the smooth muscle of chicken gizzard followed by guanidine denaturization), 200 μM of CaCl2, 80 ng of calmodulin (prepared from cattle brain), myosin light chain kinase (prepared from the smooth muscles of chicken gizzard), and agents of various concentrations. The reaction was started by the addition of 20 μl of 100 μM [γ-32P] ATP at 30 ° C., and stopped by the addition of 0.5 ml of 20% TCA. After the reaction was stopped, 3 ml of 5% TCA and 0.1 ml of 1 mg/ml albumin solution were added into the reaction mixture, the resulting solution was centrifuged, and the obtained acid-insoluble protein was fixed on the bottom of a test tube. Further, the supernatant was removed, 3 ml of 5% TCA was added into the residue, and the solution was centrifuged. […] The precipitated protein was dissolved with 2 ml of 1 N NaOH, transferred to a vial containing about 10 ml of water, and measured for Cherenkov effect by a liquid scintillation counter. […]

T1 sequence (P11799 935-1906): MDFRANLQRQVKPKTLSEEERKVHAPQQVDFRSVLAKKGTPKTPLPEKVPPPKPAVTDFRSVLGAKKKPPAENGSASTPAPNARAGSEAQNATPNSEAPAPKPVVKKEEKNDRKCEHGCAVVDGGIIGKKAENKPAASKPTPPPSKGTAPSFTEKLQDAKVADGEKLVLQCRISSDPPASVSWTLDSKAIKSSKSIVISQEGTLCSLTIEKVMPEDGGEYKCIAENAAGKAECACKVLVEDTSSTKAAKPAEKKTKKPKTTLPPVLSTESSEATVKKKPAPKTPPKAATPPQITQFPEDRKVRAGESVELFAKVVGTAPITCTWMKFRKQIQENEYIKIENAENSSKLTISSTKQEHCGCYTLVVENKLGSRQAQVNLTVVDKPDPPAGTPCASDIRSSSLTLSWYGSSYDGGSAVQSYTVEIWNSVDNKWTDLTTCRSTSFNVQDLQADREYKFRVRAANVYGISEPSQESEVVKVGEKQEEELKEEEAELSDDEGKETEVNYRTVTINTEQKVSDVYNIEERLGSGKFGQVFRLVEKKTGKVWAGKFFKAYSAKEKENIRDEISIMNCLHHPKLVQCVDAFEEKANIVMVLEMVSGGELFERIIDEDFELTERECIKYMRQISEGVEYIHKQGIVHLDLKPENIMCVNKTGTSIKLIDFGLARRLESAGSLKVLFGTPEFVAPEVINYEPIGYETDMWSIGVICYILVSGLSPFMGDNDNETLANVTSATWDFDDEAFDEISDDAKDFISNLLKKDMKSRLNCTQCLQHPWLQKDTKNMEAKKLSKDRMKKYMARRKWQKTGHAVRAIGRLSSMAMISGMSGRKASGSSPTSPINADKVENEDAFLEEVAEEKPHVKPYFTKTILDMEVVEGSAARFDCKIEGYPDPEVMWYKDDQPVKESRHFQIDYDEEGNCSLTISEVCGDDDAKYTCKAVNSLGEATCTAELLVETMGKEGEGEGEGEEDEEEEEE

Compound: NCCNS(=O)(=O)c1ccc(Cl)c2ccncc12 [Example 1, N-(2-Aminoethyl)-5-chloroisoquinoline-8-sulfonamide 2 hydrochloride]
- EC50 [1]: 32 µM
- IC50 [2]: 31 µM
